Test results published in patent US9657351B2, “MRNA-based gene expression for personalizing patient cancer therapy with an MDM2 antagonist” (Hoffmann-La Roche Inc., priority 2013, dated 2017).
pIC50: −log10 of the molar value.

What was measured:
[1] = system: NCI-H1781; experiment: COMPOUND A In Vitro Assay; format: cell-based; conditions: Homo sapiens, Lung, TP53 Mutant
Description: (§1) To generate an MDM2 antagonist therapy predictive signature, the response of MDM2 antagonist therapy in vitro with gene expression profiling (FIG. 1) is combined. A bank of 287 human cancer cell lines, collectively termed the Cell Lines for Oncology/Chugai ACcumulative Tumour EncycLopedia (CELLO/CACTEL), representing a broad array of diverse human cancer tumor types are subject to evaluation using several high-throughput genomic technology platforms. The mutational status of nucleic acids from each cell line is determined by exome sequencing. Messenger RNA (mRNA) expression levels at baseline, prior to MDM2 antagonist therapy, are obtained via RNA sequencing. MDM2 antagonist therapy COMPOUND A, sometimes referred to herein as RG7112, responses are obtained by assays known to those skilled in the art such as RNA sequencing and microarray measurement using Gene Chip Human Genome U133 Plus 2.0 Array. The MDM2 therapy responses are obtained by high throughout screening assays. Depending on their responses to COMPOUND A these cell lines are classified as either sensitive, defined as IC50<=1, or resistant, defined as IC50>=10.
(§2) 281 cells are treated with MDM2 antagonists and the IC50 (therapy response) is generated. The cell lines span a broad range of tumor cell types of derivation.

[2] = system: SW626; experiment: COMPOUND A In Vitro Assay; format: cell-based; conditions: Homo sapiens, Ovary, TP53 Mutant
Description: as §1, §2

[3] = system: NCI-H82; experiment: COMPOUND A In Vitro Assay; format: cell-based; conditions: Homo sapiens, Lung, TP53 Wild type
Description: as §1, §2

[4] = system: U-138 MG; experiment: COMPOUND A In Vitro Assay; format: cell-based; conditions: Homo sapiens, U138-MG, Brain, TP53 Mutant
Description: as §1, §2

[5] = system: HCT-8; experiment: COMPOUND A In Vitro Assay; format: cell-based; conditions: Homo sapiens, Intestine, large, colon, TP53 Wild type
Description: as §1, §2

[6] = system: HCC1806; experiment: COMPOUND A In Vitro Assay; format: cell-based; conditions: Homo sapiens, Breast, mammary gland, TP53 Mutant
Description: as §1, §2

[7] = system: HCC1395; experiment: COMPOUND A In Vitro Assay; format: cell-based; conditions: Homo sapiens, Breast, mammary gland, TP53 Mutant
Description: as §1, §2

[8] = system: SW480; experiment: COMPOUND A In Vitro Assay; format: cell-based; conditions: Homo sapiens, Intestine, large, colon, TP53 Mutant
Description: as §1, §2

[9] = system: HCC38; experiment: COMPOUND A In Vitro Assay; format: cell-based; conditions: Homo sapiens, Breast, mammary gland, TP53 Mutant
Description: as §1, §2

[10] = system: SH-SY5Y; experiment: COMPOUND A In Vitro Assay; format: cell-based; conditions: Homo sapiens
Description: as §1, §2

[11] = system: U-698-M; experiment: COMPOUND A In Vitro Assay; format: cell-based; conditions: Homo sapiens, Tonsil, TP53 Mutant
Description: as §1, §2

[12] = system: NCI-H1666; experiment: COMPOUND A In Vitro Assay; format: cell-based; conditions: Homo sapiens, Lung, TP53 Wild type
Description: as §1, §2

[13] = system: NCI-H596; experiment: COMPOUND A In Vitro Assay; format: cell-based; conditions: Homo sapiens, Lung, TP53 Mutant
Description: as §1, §2

[14] = system: CMK-11-5; experiment: COMPOUND A In Vitro Assay; format: cell-based; conditions: Homo sapiens, Lymphocyte, TP53 Mutant
Description: as §1, §2

[15] = system: PC-6; experiment: COMPOUND A In Vitro Assay; format: cell-based; conditions: Homo sapiens, Lung, TP53 Wild type
Description: as §1, §2

[16] = system: HCT-15; experiment: COMPOUND A In Vitro Assay; format: cell-based; conditions: Homo sapiens, Intestine, large, colon, TP53 Mutant
Description: as §1, §2

[17] = system: C-33 A; experiment: COMPOUND A In Vitro Assay; format: cell-based; conditions: Homo sapiens, Cervix, TP53 Mutant
Description: as §1, §2

[18] = system: WERI-Rb-1; experiment: COMPOUND A In Vitro Assay; format: cell-based; conditions: Homo sapiens
Description: as §1, §2

[19] = system: NCI-H2029; experiment: COMPOUND A In Vitro Assay; format: cell-based; conditions: Homo sapiens, Lung, TP53 Mutant
Description: as §1, §2

[20] = system: HCT116; experiment: COMPOUND A In Vitro Assay; format: cell-based; conditions: Homo sapiens, HCT-116, Intestine, large, colon, TP53 Wild type
Description: as §1, §2

[21] = system: KMS-12-PE; experiment: COMPOUND A In Vitro Assay; format: cell-based; conditions: Homo sapiens, Plasma, TP53 Mutant
Description: as §1, §2

[22] = system: Hs 766T; experiment: COMPOUND A In Vitro Assay; format: cell-based; conditions: Homo sapiens, Hs766T, Pancreas, TP53 Mutant
Description: as §1, §2

[23] = system: SNU-5; experiment: COMPOUND A In Vitro Assay; format: cell-based; conditions: Homo sapiens, Stomach, TP53 Mutant
Description: as §1, §2

[24] = system: NCI-H1048; experiment: COMPOUND A In Vitro Assay; format: cell-based; conditions: Homo sapiens, Lung, TP53 Mutant
Description: as §1, §2

[25] = system: QG-56; experiment: COMPOUND A In Vitro Assay; format: cell-based; conditions: Homo sapiens, Lung, TP53 Mutant
Description: as §1, §2

[26] = system: U-118 MG; experiment: COMPOUND A In Vitro Assay; format: cell-based; conditions: Homo sapiens, Brain, TP53 Mutant
Description: as §1, §2

[27] = system: NCI-H929; experiment: COMPOUND A In Vitro Assay; format: cell-based; conditions: Homo sapiens, Lymphocyte B, bone marrow, TP53 Wild type
Description: as §1, §2

[28] = system: SCH; experiment: COMPOUND A In Vitro Assay; format: cell-based; conditions: Homo sapiens, Stomach, TP53 Mutant
Description: as §1, §2

[29] = system: KMS-28BM; experiment: COMPOUND A In Vitro Assay; format: cell-based; conditions: Homo sapiens, Lymphocyte, TP53 Mutant
Description: as §1, §2

[30] = system: NCI-H526; experiment: COMPOUND A In Vitro Assay; format: cell-based; conditions: Homo sapiens, Lung, TP53 Mutant
Description: as §1, §2

[31] = system: SK-N-DZ; experiment: COMPOUND A In Vitro Assay; format: cell-based; conditions: Homo sapiens, Brain, TP53 Mutant
Description: as §1, §2

[32] = system: MDA-MB-361; experiment: COMPOUND A In Vitro Assay; format: cell-based; conditions: Homo sapiens, Breast, mammary gland, TP53 Mutant
Description: as §1, §2

[33] = system: NCI-H2227; experiment: COMPOUND A In Vitro Assay; format: cell-based; conditions: Homo sapiens, Lung, TP53 Mutant
Description: as §1, §2

[34] = system: U-2197; experiment: COMPOUND A In Vitro Assay; format: cell-based; conditions: Homo sapiens, Skin, hypodermis, subcutaneous, TP53 Mutant
Description: as §1, §2

[35] = system: SW579; experiment: COMPOUND A In Vitro Assay; format: cell-based; conditions: Homo sapiens, Thyroid gland, TP53 Mutant
Description: as §1, §2

[36] = system: PC-1; experiment: COMPOUND A In Vitro Assay; format: cell-based; conditions: Homo sapiens, tissue null, TP53 Wild type
Description: as §1, §2

[37] = system: SK-N-F1; experiment: COMPOUND A In Vitro Assay; format: cell-based; conditions: Homo sapiens, Brain, TP53 Mutant
Description: as §1, §2

[38] = system: NOMO-1; experiment: COMPOUND A In Vitro Assay; format: cell-based; conditions: Homo sapiens, Bone marrow, TP53 Mutant
Description: as §1, §2

[39] = system: P21; conditions: NP22890; at C1D8; as previously reported; cited from earlier work

CCOc1cc(C(C)(C)C)ccc1C1=N[C@@](C)(c2ccc(Cl)cc2)[C@@](C)(c2ccc(Cl)cc2)N1C(=O)N1CCN(CCCS(C)(=O)=O)CC1 [COMPOUND A]
pIC50 [1]: 5.06
pIC50 [2]: 5.02
pIC50 [3]: 5.31
pIC50 [4]: 4.54
pIC50 [5]: 4.80
pIC50 [6]: 4.96
pIC50 [7]: 4.70
pIC50 [8]: 4.92
pIC50 [9]: 4.92
pIC50 ([10]; Brain, TP53 Wild type): 6.12
pIC50 ([10]; SH-SY5Y cells): 6.10
pIC50 [11]: 5.01
pIC50 [12]: 4.89
pIC50 [13]: 4.74
pIC50 [14]: 5.02
pIC50 [15]: 5.09
pIC50 [16]: 5.12
pIC50 [17]: 4.74
pIC50 ([18]; WERI-Rb-1, Eye, retina, TP53 Wild type): 6.17
pIC50 ([18]; WERI-Rb-1 cells): 6.15
pIC50 [19]: 5.24
pIC50 [20]: 6.30
pIC50 [21]: 5.28
pIC50 [22]: 4.77
pIC50 [23]: 4.80
pIC50 [24]: 5.03
pIC50 [25]: 5.00
pIC50 [26]: 4.72
pIC50 [27]: 6.52
pIC50 [28]: 4.77
pIC50 [29]: 5.05
pIC50 [30]: 4.80
pIC50 [31]: 5.24
pIC50 [32]: 4.68
pIC50 [33]: 4.80
pIC50 [34]: 4.66
pIC50 [35]: 4.80
pIC50 [36]: 5.89
pIC50 [37]: 4.77
pIC50 [38]: 5.20
P21 concentration change from baseline [39]: significantly increase
